Results reported in patent US3987197A, “3-(2'-Fluoro-4-biphenylyl)-butyric acid and salts thereof” (Boehringer Ingelheim GmbH, priority 1972, dated 1976).

What was measured:
[1] = tested on: kaolin edema of the hind paws of the rat; test: kaolin edema of the hind paw of the rat, anti-exudative effect, oral; type: in vivo; conditions: 5 h, male FW 49-rats, oral 30 minutes before edema, 35% reduction of swelling five hours after provocation, graphic extrapolation, read-out: kaolin edema ED35 per os
Method: (§1) The compounds were tested by standard test methods for their anti-exudativeeffects on the kaolin edema and carrageenin edema of the hind paws of the rat and for their acute toxicity by oral administration to rats.
The kaolin edema was induced according to the method of Hillebrecht [Arzneimitted-Forsch. 4, 607 (1954)] by subplantary injection of 0.05 ml of a 10% suspension of kaolin in a 0.85% sodium chloride solution. The measurement of the thickness of the paws was done by using the technique of Doepfner and Cerletti [Int. Arch. Allergy. Immunol. 12, 89 (1958)].
(§2) Male FW 49-rats of an average weight of 120-150 gm were orally treated with the test compounds 30 minutes before inducement of the edema with the aid of an esophageal tube. Five hours after the provocation of the edema the averaged values of the swelling caused in the paws of the rats treated with the compounds were compared with those values measured on blind-treated control animals. By graphic extrapolation the dose leading to a 35% reduction of the swelling (ED35) was calculated from the percent reduction values measured by administration of different doses.

[2] = tested on: carrageenin edema of the hind paws of the rat; test: carrageenin edema of the hind paw of the rat, anti-exudative effect, oral; type: in vivo; conditions: 3 h, FW 49-rats, oral 60 minutes before edema, 35% reduction of swelling three hours after provocation, graphic extrapolation, read-out: carrageenin edema ED35 per os
Method: as §1, §2
The provocation of the carrageenin edema was effected according to the method of Winter et al [Proc. Soc. exp. Biol. Med. 111, 544 (1962)] by subplantary injection of 0.05 ml of a 1% solution of carrageenin in a 0.85% solution of sodium chloride. The test compounds were orally administered 60 minutes before the provocation of the edema.
For the calculation of the reductive effect on the edema the values measured three hours after the provocation of the edema were used. All the other details were the same as described above in the case of the kaolin edema.

[3] = tested on: kaolin and carrageenin edema; test: antiexudative effect, average of kaolin and carrageenin edema tests; type: in vivo; conditions: Rattus norvegicus, po; arithmetically averaged value from ED35 kaolin edema and ED35 carrageenin edema
Source text: *arithmetically averaged value from ED35 kaolin edema and ED35

[4] = acute toxicity in the rat, oral; conditions: in vivo, male and female FW 49-rats (1:1), oral as trituration in tylose, 14 days, Litchfield and Wilcoxon, 95% confidence limits, read-out: acute toxicity in the rat LD50 per os
Method: as §1
After oral administration to male and female FW 49-rats (ratio 1:1) having an average body weight of 135 gm, the acute toxicity (LD50 ) was determined. The substances were administered orally as trituration in tylose.
The calculation of the LD50 -values was effected, as far as possible, according to the method of Litchfield and Wilcoxon, based on the percentage of animals which died within 14 days after administration of the different doses.

[5] = in vivo; conditions: rat, po
Method: The therapeutic index, as a measure for the therapeutic usefulness, was calculated by forming the quotient of the LD50 -value and the ED35 -value derived from the tests for anti-exudative activity against the kaolin and carrageenin edema.

Structure (SMILES): CC(CC(=O)O)c1ccc(-c2ccccc2F)cc1 (racemic) [A, 3-(2'-fluoro-4-biphenylyl)-butyric acid]
- ED35 [1]: 19 mg/kg
- ED35 [2]: 10.5 mg/kg
- ED35 [3]: 14.8 mg/kg
- LD50 at 336 h [4]: 540 mg/kg
- selectivity ratio [5]: 36.5
